Experimental data: patent US6693115B2, “Acid addition salts of hydropyridine derivatives” (Sankyo Company, Limited, priority 2000, dated 2004)

Legend:
[1] = tested on: ADP-induced platelet aggregation; assay: Inhibitory effect on platelet aggregation (feeding), ex vivo PRP after oral administration; type: in vivo, male beagle dogs; conditions: fed dogs, oral 0.3 mg/kg, ADP 20 μM, mean ± standard deviation; for Inhibition (%) of platelet aggregation 2 hours: 2 hours after administration; for Inhibition (%) of platelet aggregation 4 hours: 4 hours after administration
Procedure: Inhibitory Effect on Platelet Aggregation (Feeding)
For this test, male beagle dogs (about 10 kg in body weight, purchased from Kasho Co., Ltd. and Nippon Nosan Kogyo K.K.) were used. One group consisted of 5 or 6 dogs. The platelet aggregation was measured using an automatic platelet aggregometer (“PAM-6C”, trade name; a product of Mebanix Corporation) in accordance with the method of Born, et al. (J. Physiol., 168, 178 (1963)) with a partial modification.
Each of 2.5 hours and 4.5 hours after feeding, 5.4 ml of blood was collected from the cephalic vein of each dog using sodium citrate (0.6 ml, 3.8% (w/v)) as an anticoagulant. The citrate-added blood was centrifuged (240 g, 20 minutes) to separate platelet-rich plasma (hereinafter referred to as “PRP”) and platelet-poor plasma (hereinafter referred to as “PPP”). After the number of platelets in PRP was counted by an automatic hematology analyzer (“K-1000”, trade name; a product of Sysmex Corporation), PPP was added to adjust the number of platelets to 3×10^8/ml. PRP (240 μl) dispensed in a cuvette was set on the automatic platelet aggregometer. After preheating (at 37° C.) for 1 minute, 10 μl of ADP (final concentration: 20 μM) was added to cause platelet aggregation. For 10 minutes, platelet aggregation was measured and the maximum aggregation was determined to give the pre-administration value.
(§1) On the next day, 30 minutes after feeding, each test compound filled in a gelatin capsule was orally administered to the dogs. The blood was collected each of 2 and 4 hours after the administration. The platelet aggregation of PRP was measured, whereby the maximum aggregation was determined. The inhibition (%) of platelet aggregation by the test compound was calculated by comparing it with the pre-administration value.
In these tables, the term “hydrochloride” means 2-acetoxy-5-(α-cyclopropylcarbonyl-2-fluorobenzyl)-4,5,6-7-tetrahydrothieno[3,2-c]pyridine hydrochloride obtained in Example 1, “free form” means 2-acetoxy-5-(α-cyclopropylcarbonyl-2-fluorobenzyl)-4,5,6,7-tetrahydrothieno[3,2-c]pyridine, and “maleate” means 2-acetoxy-5-(α-cyclopropylcarbonyl-2-fluorobenzyl)-4,5,6,7-tetrahydrothieno[3,2-c]pyridine maleate obtained in Example 2.

[2] = tested on: ADP-induced platelet aggregation; assay: Inhibitory effect on platelet aggregation (fasting), ex vivo PRP after oral administration; type: in vivo, male beagle dogs; conditions: Table 4, fasted dogs, oral 1.0 mg/kg, ADP 20 μM, mean ± standard deviation; for Inhibition (%) of platelet aggregation 2 hours: 2 hours after administration; for Inhibition (%) of platelet aggregation 4 hours: 4 hours after administration
Procedure: Inhibitory Effect on Platelet Aggregation (Fasting)
For this test, male beagle dogs (about 10 kg in body weight, purchased from Kasho Co., Ltd. and Nippon Nosan Kogyo K.K.) were used. One group consisted of 3 dogs. The platelet aggregation was measured using an automated platelet aggregometer (“PAM-6C”, trade name; a product of Mebanix Corporation) in accordance with the method of Born, et al. (J. Physiol., 168, 178(1963)) with a partial modification.
From the cephalic vein of each dog fasted overnight, 5.4 ml of the blood was collected using sodium citrate (0.6 ml, 3.8% (w/v)) as an anticoagulant. The resulting citrate-added blood was centrifuged (240 g, 20 minutes) to separate platelet-rich plasma (hereinafter referred to as “PRP”) and platelet-poor plasma (hereinafter referred to as “PPP”). After the number of platelets in PRP was counted by an automatic hematology analyzer (“K-1000”, trade name; a product of Sysmex Corporation), PPP was added to adjust the number of platelets to 3×10^8/ml. PRP (240 μl) dispensed in a cuvette was set on the automatic platelet aggregometer. After preheating (at 37° C.) for 1 minute, 10 μl of ADP (final concentration: 20 μM) was added to cause platelet aggregation. For 10 minutes, platelet aggregation was measured and the maximum aggregation was determined to give the pre-administration value.
as §1, with “day,” for “day, 30 minutes after feeding,”, “after” for “after the”
In this table, the term “maleate” means 2-acetoxy-5-(α-cyclopropylcarbonyl-2-fluorobenzyl)-4,5,6,7-tetrahydrothieno[3,2-c]pyridine maleate obtained in Example 2, while the term “free form” means 2-acetoxy-5-(α-cyclopropylcarbonyl-2-fluorobenzyl)-4,5,6,7-tetrahydrothieno[3,2-c]pyridine.

[3] = Storage stability of crystal forms; type: physicochemical; conditions: comparison between hydrochloride crystal forms

CC(=O)Oc1cc2c(s1)CCN(C(C(=O)C1CC1)c1ccccc1F)C2 (stereo not drawn) [Free form, 2-Acetoxy-5-(α-cyclopropylcarbonyl-2-fluorobenzyl)-4,5,6,7-tetrahydrothieno[3,2-c]pyridine, reference compound]
Inhibition (%) of platelet aggregation 2 hours ([1]; Table 2): 25.8 ± 10.9%
Inhibition (%) of platelet aggregation 4 hours ([1]; Table 2): 28.6 ± 14.2%
Inhibition (%) of platelet aggregation 2 hours ([1]; Table 3): 21.7 ± 9.8%
Inhibition (%) of platelet aggregation 4 hours ([1]; Table 3): 23.8 ± 12.6%
Inhibition (%) of platelet aggregation 2 hours [2]: 27.9 ± 24.8%
Inhibition (%) of platelet aggregation 4 hours [2]: 28.7 ± 24.4%

CC(=O)Oc1cc2c(s1)CCN(C(C(=O)C1CC1)c1ccccc1F)C2.Cl (stereo not drawn) [Hydrochloride, 2-Acetoxy-5-(α-cyclopropylcarbonyl-2-fluorobenzyl)-4,5,6,7-tetrahydrothieno[3,2-c]pyridine hydrochloride (crystal A)]
Inhibition (%) of platelet aggregation 2 hours ([1]; Table 2): 49.0 ± 18.7%
Inhibition (%) of platelet aggregation 4 hours ([1]; Table 2): 48.5 ± 18.3%

CC(=O)Oc1cc2c(s1)CCN(C(C(=O)C1CC1)c1ccccc1F)C2.O=C(O)/C=C\C(=O)O (stereo not drawn) [Maleate, 2-Acetoxy-5-(α-cyclopropylcarbonyl-2-fluorobenzyl)-4,5,6,7-tetrahydrothieno[3,2-c]pyridine maleate]
Inhibition (%) of platelet aggregation 2 hours ([1]; Table 3): 50.9 ± 14.5%
Inhibition (%) of platelet aggregation 4 hours ([1]; Table 3): 58.6 ± 15.7%
Inhibition (%) of platelet aggregation 2 hours [2]: 63.4 ± 22.9%
Inhibition (%) of platelet aggregation 4 hours [2]: 88.5 ± 5.7%

CC(=O)Oc1cc2c(s1)CCN(C(C(=O)C1CC1)c1ccccc1F)C2.Cl (stereo not drawn) [crystal B1, 2-Acetoxy-5-(α-cyclopropylcarbonyl-2-fluorobenzyl)-4,5,6,7-tetrahydrothieno[3,2-c]pyridine Hydrochloride (Crystal B1)]
storage stability [3]: more excellent storage stability than crystal A

CC(=O)Oc1cc2c(s1)CCN(C(C(=O)C1CC1)c1ccccc1F)C2.Cl (stereo not drawn) [crystal B2, 2-Acetoxy-5-(α-cyclopropylcarbonyl-2-fluorobenzyl)-4,5,6,7-tetrahydrothieno[3,2-c]pyridine hydrochloride (crystal B2)]
storage stability [3]: more excellent storage stability than crystal B1
